Reference: patent US10597388B2, “Pyridazinone herbicides” (FMC CORPORATION, priority 2014, dated 2020)

Tests used:
Test in all cases: Test D controlled growth environment herbicide test, pre- and postemergence
Format in all cases: in vivo
kochia (Kochia scoparia) = system: kochia (Kochia scoparia)
In short: (§1)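 Pre-emergence: seeds sown in silt loam soil were sprayed with compound in a non-phytotoxic solvent mix containing surfactant. Post-emergence: plants at 2 to 18 cm (1- to 4-leaf stage) in peat moss/vermiculite medium got the same formulation. Visual 0–100 rating versus controls after 14 to 21 d.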

[1] = system: bromegrass, downy (downy bromegrass, Bromus tectorum)
In short: as §1

[2] = system: buckwheat, wild (wild buckwheat, Polygonum convolvulus)
In short: as §1

[3] = system: mustard, wild (wild mustard, Sinapis arvensis)
In short: as §1

[4] = system: deadnettle (henbit deadnettle, Lamium amplexicaule)
In short: as §1

[5] = system: pigweed (Amaranthus retroflexus)
In short: as §1

[6] = system: windgrass (Apera spica-venti)
In short: as §1

[7] = system: speedwell (bird's-eye speedwell, Veronica persica)
In short: as §1

[8] = system: chamomile (scentless chamomile, Matricaria inodora)
In short: as §1

[9] = system: ryegrass, Italian (Italian ryegrass, Lolium multiflorum)
In short: as §1

[10] = system: galium (catchweed bedstraw, Galium aparine)
In short: as §1

[11] = system: oilseed rape (Brassica napus)
In short: as §1

[12] = system: blackgrass (Alopecurus myosuroides)
In short: as §1

[13] = system: foxtail, green (green foxtail, Setaria viridis)
In short: as §1

[14] = Postemergence, 31 g ai/ha, scale 0 to 100 (0 no effect, 100 complete control)
[15] = Postemergence, 125 g ai/ha, visual rating on scale 0 (no effect) to 100 (complete control), 14 to 21 d
[16] = Postemergence, 250 g ai/ha, scale 0 to 100 (0 no effect, 100 complete control)
[17] = Preemergence, 125 g ai/ha, scale 0 to 100 (0 no effect, 100 complete control)
[18] = Preemergence, 250 g ai/ha, scale 0 to 100, 0 no effect, 100 complete control
[19] = postemergence, 62 g ai/ha, scale 0 to 100, 0 no effect, 100 complete control
[20] = Preemergence, 62 g ai/ha, scale 0 to 100 (0 no effect, 100 complete control)

CC(=O)Oc1c(C)nn(C)c(=O)c1-c1c(C)sc2ccc(Cl)cc12 [Compound 108]
60: Plant response rating (scale of 0 to 100), Kochia (kochia (Kochia scoparia); Preemergence, 31 g ai/ha) | Plant response rating (scale of 0 to 100), Mustard, Wild ([3]; Preemergence, 62 g ai/ha) | Speedwell plant response rating [7, 14] | Plant response rating (scale of 0 to 100), Galium ([10]; Preemergence, 31 g ai/ha)
65: Plant response rating, Bromegrass, Downy [1, 16] | Windgrass plant response rating [6, 14] | Plant response rating, Speedwell [7, 19] | Plant response rating, Blackgrass [12, 15] | Foxtail, Green plant response rating [13, 14]
40: Plant response rating, Bromegrass, Downy [1, 15] | Plant response rating, Oilseed Rape [11, 18]
45: Oilseed Rape plant response rating [11, 14] | Plant response rating (scale of 0 to 100), Oilseed Rape ([11]; Preemergence, 62 g ai/ha) | Plant response rating, Blackgrass [12, 19]
70: Plant response rating, Bromegrass, Downy [1, 17] | Mustard, Wild plant response rating [3, 14] | Plant response rating, Windgrass [6, 19] | Plant response rating, Speedwell [7, 15] | Plant response rating (scale of 0 to 100), Galium ([10]; Preemergence, 62 g ai/ha) | Plant response rating, Oilseed Rape [11, 19] | Plant response rating, Foxtail, Green [13, 19]
20: Plant response rating, Buckwheat, Wild [2, 17] | Plant response rating (scale of 0 to 100), Oilseed Rape ([11]; Preemergence, 31 g ai/ha) | Blackgrass plant response rating [12, 14]
85: Plant response rating, Mustard, Wild [3, 18] | Plant response rating, Windgrass [6, 16] | Plant response rating, Chamomile [8, 19]
95: Plant response rating (scale of 0 to 100), Kochia (kochia (Kochia scoparia); Preemergence, 62 g ai/ha) | Plant response rating, Mustard, Wild [3, 15] | Plant response rating, Mustard, Wild [3, 17] | Plant response rating, Deadnettle [4, 17] | Pigweed plant response rating [5, 14] | Plant response rating, Windgrass [6, 18] | Plant response rating, Chamomile [8, 15] | Plant response rating, Ryegrass, Italian [9, 15] | Plant response rating, Galium [10, 17] | Plant response rating, Galium [10, 19] | Plant response rating, Foxtail, Green [13, 16]
98: Plant response rating (scale of 0 to 100), Ryegrass, Italian ([9]; Preemergence, 62 g ai/ha)
0: Plant response rating (scale of 0 to 100), Buckwheat, Wild ([2]; Preemergence, 31 g ai/ha) | Plant response rating, Buckwheat, Wild [2, 20] | Plant response rating (scale of 0 to 100), Deadnettle ([4]; Preemergence, 31 g ai/ha)
80: Plant response rating, Kochia (kochia (Kochia scoparia); [17]) | Plant response rating, Speedwell [7, 16] | Plant response rating (scale of 0 to 100), Ryegrass, Italian ([9]; Preemergence, 31 g ai/ha) | Plant response rating, Blackgrass [12, 18]
100: Plant response rating, Kochia (kochia (Kochia scoparia); [15]) | Plant response rating, Kochia (kochia (Kochia scoparia); [16]) | Plant response rating, Kochia (kochia (Kochia scoparia); [18]) | Plant response rating, Kochia (kochia (Kochia scoparia); [19]) | Plant response rating, Buckwheat, Wild [2, 15] | Plant response rating, Buckwheat, Wild [2, 16] | Plant response rating, Buckwheat, Wild [2, 19] | Plant response rating, Mustard, Wild [3, 16] | Plant response rating, Deadnettle [4, 18] | Plant response rating, Pigweed [5, 15] | Plant response rating, Pigweed [5, 16] | Plant response rating (scale of 0 to 100), Pigweed ([5]; Preemergence, 31 g ai/ha) | Plant response rating (scale of 0 to 100), Pigweed ([5]; Preemergence, 62 g ai/ha) | Plant response rating, Pigweed [5, 17] | Plant response rating, Pigweed [5, 18] | Plant response rating, Pigweed [5, 19] | Plant response rating, Chamomile [8, 16] | Plant response rating, Ryegrass, Italian [9, 16] | Plant response rating, Ryegrass, Italian [9, 17] | Plant response rating, Ryegrass, Italian [9, 18] | Plant response rating, Galium [10, 15] | Plant response rating, Galium [10, 16] | Plant response rating, Galium [10, 18] | Plant response rating, Oilseed Rape [11, 16] | Plant response rating, Foxtail, Green [13, 17] | Plant response rating, Foxtail, Green [13, 18]
5: Plant response rating (scale of 0 to 100), Mustard, Wild ([3]; Preemergence, 31 g ai/ha)
15: Plant response rating (scale of 0 to 100), Blackgrass ([12]; Preemergence, 31 g ai/ha)
25: Bromegrass, Downy plant response rating [1, 14] | Plant response rating (scale of 0 to 100), Bromegrass, Downy ([1]; Preemergence, 31 g ai/ha) | Plant response rating, Bromegrass, Downy [1, 20] | Plant response rating (scale of 0 to 100), Deadnettle ([4]; Preemergence, 62 g ai/ha) | Plant response rating (scale of 0 to 100), Windgrass ([6]; Preemergence, 31 g ai/ha)
50: Plant response rating, Deadnettle [4, 19] | Plant response rating (scale of 0 to 100), Windgrass ([6]; Preemergence, 62 g ai/ha) | Plant response rating, Blackgrass [12, 17]
30: Plant response rating, Bromegrass, Downy [1, 19] | Plant response rating (scale of 0 to 100), Foxtail, Green ([13]; Preemergence, 31 g ai/ha)
90: Kochia plant response rating (kochia (Kochia scoparia); [14]) | Buckwheat, Wild plant response rating [2, 14] | Plant response rating, Deadnettle [4, 16] | Ryegrass, Italian plant response rating [9, 14] | Plant response rating, Ryegrass, Italian [9, 19] | Galium plant response rating [10, 14] | Plant response rating (scale of 0 to 100), Foxtail, Green ([13]; Preemergence, 62 g ai/ha)
35: Plant response rating, Buckwheat, Wild [2, 18] | Deadnettle plant response rating [4, 14] | Plant response rating, Blackgrass [12, 20]
75: Plant response rating, Bromegrass, Downy [1, 18] | Plant response rating, Mustard, Wild [3, 19] | Plant response rating, Deadnettle [4, 15] | Plant response rating, Windgrass [6, 15] | Plant response rating, Windgrass [6, 17] | Chamomile plant response rating [8, 14] | Plant response rating, Oilseed Rape [11, 15] | Plant response rating, Oilseed Rape [11, 17] | Plant response rating, Blackgrass [12, 16] | Plant response rating, Foxtail, Green [13, 15]
